Results reported in publication PMC4713029 (Nuclear medicine and biology, 2011).

Key:
[1] = test system: s.c. pheochromocytoma tumors (MPC cells); experiment: [^18F]-DA and [^18F]-DOPA PET in mice with subcutaneous pheochromocytoma; conditions: for SUVmax (mean±S.E.M.), s.c. tumors <5 mm / SUVmax (mean±S.E.M.), s.c. tumors >5 mm / SUVmax in tumor sample s.c. 1 / SUVmax in tumor sample s.c. 2 / SUVmax in tumor sample s.c. 3 / TLR for s.c. tumors (range over tumor size) / TLR, s.c. tumors <5 mm / TLR, s.c. tumors >5 mm / TBR, s.c. tumors <5 mm / TBR, s.c. tumors >5 mm: 60–70 min after administration; for TBR, s.c. tumors <5 mm / TBR, s.c. tumors >5 mm: muscle as background; for number of subcutaneous tumors localized by PET: necropsy 4 in 4 mice
[2] = test system: organ metastatic pheochromocytoma lesions (MPC cells); experiment: [^18F]-DA and [^18F]-DOPA PET in mice with organ metastatic pheochromocytoma; conditions: for TBR (tumor-to-background ratio), liver tumors <3 mm / TBR, adrenal tumors >3 mm / TBR, liver tumors >3 mm / TBR, ovary tumors >3 mm: muscle as background; for SUVmax in tumor sample Adrenal 1: sample also immunostained; for SUVmax in liver lesions, the first week / SUVmax in liver lesions, the second week: liver lesions imaged once a week for two weeks; for optimal time for lesion detection after administration: liver lesions vs liver background, dynamic PET up to 70 min; for number of ovary tumors localized by PET: necropsy 4 in 4 mice; for number of lung tumors localized by PET: necropsy >20 in 2 mice
[3] = test system: pheochromocytoma animal model with extensive liver and other organ lesions; format: in vivo; conditions: preliminary experiments
[4] = cited from earlier work
[5] = Fig. 3G, 60–70 min after injection

## NCCc1cc(O)c(O)cc1[18F] [[^18F]-DA, [^18F]-6-fluorodopamine]
[1]
  SUVmax (mean±S.E.M.), s.c. tumors <5 mm: 0.31±0.02
  SUVmax (mean±S.E.M.), s.c. tumors >5 mm: 0.35±0.12
  SUVmax in tumor sample s.c. 1: — (A dash sign “—” presents SUVmax values less than 0.3 for both [^18F]-DA and [^18F]-DOPA)
  SUVmax in tumor sample s.c. 2: — (A dash sign “—” presents SUVmax values less than 0.3 for both [^18F]-DA and [^18F]-DOPA)
  SUVmax in tumor sample s.c. 3: — (A dash sign “—” presents SUVmax values less than 0.3 for both [^18F]-DA and [^18F]-DOPA)
  TLR for s.c. tumors (range over tumor size): 0.22-0.27
  TLR, s.c. tumors <5 mm: 0.22
  TLR, s.c. tumors >5 mm: 0.27
  TBR, s.c. tumors <5 mm: 1.72
  TBR, s.c. tumors >5 mm: 1.94
[1]; [5]
  SUVmax in large s.c. tumor, representative animal: 0.35
  SUVmax in muscle (nontarget tissue), representative animal: 0.31
[1]; four mice
  number of subcutaneous tumors localized by PET: 0
[2]; 60–70 min after administration
  SUVmax (mean±S.E.M.), adrenal tumors >3 mm: 2.18±0.39
  SUVmax (mean±S.E.M.), kidney: 2.41±0.45
  SUVmax (mean±S.E.M.), liver: 0.88±0.11
  SUVmax (mean±S.E.M.), liver tumors <3 mm: 1.61±0.17
  SUVmax (mean±S.E.M.), liver tumors >3 mm: 2.49±0.08
  SUVmax (mean±S.E.M.), muscle (background): 0.31±0.02
  SUVmax (mean±S.E.M.), ovary tumors >3 mm: 1.99±0.27
  SUVmax in tumor sample Adrenal 2: 1.98
  SUVmax in tumor sample Bone: — (A dash sign “—” presents SUVmax values less than 0.3 for both [^18F]-DA and [^18F]-DOPA)
  SUVmax in tumor sample Liver 1: 2.46
  SUVmax in tumor sample Liver 2: 1.89
  SUVmax in tumor sample Liver 3: — (A dash sign “—” presents SUVmax values less than 0.3 for both [^18F]-DA and [^18F]-DOPA)
  SUVmax in tumor sample Lung: — (A dash sign “—” presents SUVmax values less than 0.3 for both [^18F]-DA and [^18F]-DOPA)
  SUVmax in tumor sample Ovary: 1.92
  TLR (tumor-to-liver ratio), liver tumors <3 mm: 1.83
  TLR for liver lesions (range depending on tumor size): 1.83–2.83
  TLR, adrenal tumors >3 mm: 2.47
  TLR, liver tumors >3 mm: 2.83
  TLR, ovary tumors >3 mm: 2.26
  TBR (tumor-to-background ratio), liver tumors <3 mm: 5.19
  TBR, adrenal tumors >3 mm: 7.03
  TBR, liver tumors >3 mm: 8.03
  TBR, ovary tumors >3 mm: 6.41
  SUVmax in tumor sample Adrenal 1: 2.15
[2]; dynamic PET 10–70 min, Fig. 1
  SUVmax time–activity course, liver lesions smaller than 3 mm: remained relatively stable
  SUVmax time–activity course, liver tumors larger than 3 mm: decrease in SUVmax over time
[2]
  SUVmax in liver lesions, the first week: 1.85±0.199
  SUVmax in liver lesions, the second week: 1.16±0.07
  optimal time for lesion detection after administration: 60 to 70 min
[2]; week 5, nine mice
  number of mice with adrenal tumors localized by PET: 4 mice
  number of mice with liver tumors localized by PET: 8 mice
  number of mice with ovary tumors localized by PET: 4 in 4 mice
  number of ovary tumors localized by PET: 4 in 4 mice
  number of lung tumors localized by PET: 0

## N[C@@H](Cc1cc(O)c(O)cc1[18F])C(=O)O [[^18F]-DOPA, [^18F]-L-6-fluoro-3,4-dihydroxyphenylalanine]
[1]
  SUVmax (mean±S.E.M.), s.c. tumors <5 mm: 2.88±0.88
  SUVmax (mean±S.E.M.), s.c. tumors >5 mm: 2.0±0.06
  SUVmax in tumor sample s.c. 1: 1.88
  SUVmax in tumor sample s.c. 2: 2.25
  SUVmax in tumor sample s.c. 3: 2.09
  TLR for s.c. tumors (range over tumor size): 1.56-2.24
  TLR, s.c. tumors <5 mm: 2.24
  TLR, s.c. tumors >5 mm: 1.56
  TBR, s.c. tumors <5 mm: 7.2
  TBR, s.c. tumors >5 mm: 5.0
[1]; [5]
  SUVmax in large s.c. tumor, representative animal: 2
[1]; four mice
  number of mice with subcutaneous tumors localized by PET: 4 in 4 mice
  number of subcutaneous tumors localized by PET: 4 in 4 mice
[2]; 60–70 min after administration
  SUVmax (mean±S.E.M.), adrenal tumors >3 mm: 6.61±0.64
  SUVmax (mean±S.E.M.), kidney: 1.73±0.34
  SUVmax (mean±S.E.M.), liver: 1.33±0.14
  SUVmax (mean±S.E.M.), liver tumors <3 mm: 3.01±0.27
  SUVmax (mean±S.E.M.), liver tumors >3 mm: 3.61±0.19
  SUVmax (mean±S.E.M.), muscle (background): 0.29±0.02
  SUVmax (mean±S.E.M.), ovary tumors >3 mm: 2.59±0.32
  SUVmax in tumor sample Adrenal 2: 5.79
  SUVmax in tumor sample Bone: 1.42
  SUVmax in tumor sample Liver 1: 3.31
  SUVmax in tumor sample Liver 2: 2.79
  SUVmax in tumor sample Liver 3: 3.24
  SUVmax in tumor sample Lung: 1.15
  SUVmax in tumor sample Ovary: 3.05
  TLR (tumor-to-liver ratio), liver tumors <3 mm: 2.26
  TLR for liver lesions (range depending on tumor size): 2.26–2.71
  TLR, liver tumors >3 mm: 2.71
  TBR (tumor-to-background ratio), liver tumors <3 mm: 10.38
  TBR, adrenal tumors >3 mm: 22.79
  TBR, liver tumors >3 mm: 12.45
  TBR, ovary tumors >3 mm: 8.93
  SUVmax in tumor sample Adrenal 1: 6.46
[2]; dynamic PET 10–70 min, Fig. 1
  SUVmax time–activity course, liver lesions regardless of tumor size: remained stable over time
[2]
  SUVmax in liver lesions, the first week: 3.023±0.22
  SUVmax in liver lesions, the second week: 2.88±0.12
  optimal time for lesion detection after administration: 60 to 70 min
[2]; week 5, nine mice
  number of mice with adrenal tumors localized by PET: 5 mice
  number of mice with liver tumors localized by PET: 9 mice
  number of mice with lung tumors localized by PET: 1 in 1 mouse
  number of mice with ovary tumors localized by PET: 4 in 4 mice
  number of ovary tumors localized by PET: 4 in 4 mice
  number of lung tumors localized by PET: 1 in 1 mouse
[2]; week 5, nine mice, necropsy 18 in 9 mice
  number of adrenal tumors localized by PET: 9

## CNCCCN1c2ccccc2CCc2ccccc21 [desipramine]
[3]
  side effects on administration in tumor-bearing animals: side effects were in most cases fatal

## NCCc1ccc(O)c(O)c1 [dopamine]
[4]
  half-life in circulation: about 1 minute

## COC(=O)[C@H]1[C@H]2C[C@@H]3c4[nH]c5cc(OC)ccc5c4CCN3C[C@H]2C[C@@H](OC(=O)c2cc(OC)c(OC)c(OC)c2)[C@@H]1OC [reserpine]
[3]
  side effects on administration in tumor-bearing animals: side effects were in most cases fatal

## COc1cc2c(cc1OC)C1CC(=O)C(CC(C)C)CN1CC2 (stereo not shown) [tetrabenazine]
[3]
  side effects on administration in tumor-bearing animals: side effects were in most cases fatal
